Reference: patent publication US4338331A, “Isoindoline derivative and a therapeutic composition thereof” (priority 1979, dated 1982)
“And” between values parts separate entries of the source, which are not always exact repeats. Identical values can stand only once.

Tests used:
[1] = tested on: male Wistar rat; experiment: Chronic (subacute) toxicity, 28 days oral, male rat; assay type: in vivo; details: 20 mg/kg and 40 mg/kg, printed '48 consecutive days'
[2] = tested on: Swiss mouse; experiment: Acute toxicity, oral, mouse; assay type: in vivo
Procedure: Acute toxicity was determined orally in the Wister rat and in the Swiss mouse of both sexes.
The animals were kept fasting for at least 12 hours before the tests but whith free access to water. The compound was suspended homogeneously in gum arabic mucilage and was administered, at the set doses, in a volume of 40 ml/kg by means of a gastro-oesophageal probe.
Each dose was tested on ten animals, of which five were male and five female. The weight of the rats varied from 300 to 350 g for the males and from 220 g to 250 g for the females. The weight of the mice, of both sexes, varied from 28 g to 35 g.
The observation lasted ten days.

[3] = tested on: male Wistar rat; experiment: Chronic (subacute) toxicity, 28 days oral, male rat; assay type: in vivo; details: 20 and 40 mg/kg/day oral, 28 days
Procedure: (§1) These tests were carried out on the male Wistar rat having a body weight which varied from 188 to 228 grams. The animals were randomly divided into groups of ten each, and treated in the following manner:
(§2) Group A--CONTROLS--10% gum arabic, 10 ml/kg/day by oral administration using a gastro-oesophageal probe for 28 consecutive days;
(§3) Group B--CM/1 20 mg/10 ml of 10% gum arabic per kg/day by oral administration using a gastro-oesophageal probe for 28 consecutive days;
(§4) Group C--CM/1 40 mg/10 ml of 10% gum arabic per kg/day by oral administration using a gastro-oesophageal probe for 28 consecutive days.
(§5) In all the groups tested, the body weight was measured daily at the moment of administration, and recorded at regular intervals.
(§6) The general conditions of food and water consumption were noted, and any mortality and the symptomatology were recorded.
(§7) Between the 25th and 27th day of treatment, all the tested groups were kept in suitable metabolic cages (single) in order to collect the urine spontaneously ejected, and thus determine its composition by reactive Bili-Labstix strips of Ames.
(§8) Between the 27th and 29th day of treatment, all the animals, which has fasted for 12 hours but with free access to water, were sacrificed by decapitation (a small animal decapitator of the Amer. Instr. Corp. was used). The following were determined from the blood collected from the trunk:
(§9) azotemia (Dell'Aira, in King E.--Microanalisi nella Biochimica medica. II Pensiero Sci. Ed., ROMA 1951);
(§10) glycemia (Price D. J.--Analyst 92; 198, 1967);
(§11) total bilirubinemia (Jendrassik L. and Grof. P.--Biochem. Z. 297;81, 1938);
(§12) total cholesterolemia (Huan T. C., Chen C. P., Wefler V. and Battey A.--Anal. Chem. 33; 1405, 1961);
(§13) total lipidemia (Zollner N. and Kirsch K.--Z. ges. Exp. Med. 135; 545, 1962)
(§14) SGOT and SGPT transaminase (Reitman S. and Frankel E.--Amer J. Clin. Path. 28;56, 1957);
(§15) total protidemia by the biuret colorimetric method, using lyphilised Hyland serum as standard;
(§16) sodaemia and potassaemia using the photometric method.
(§17) A macroscopic examination was also made of the main organs in order to note any alterations or tumor masses which could indicate neoplasia. Particular attention was given to the examination of the stomach and intestine of the rats treated with the highest dose, in order to determine the degree of local tolerability to repeated administration of CM/1 over 28 days by the gastro-enteric mucosa.
(§18) For this purpose, the stomach and intestine were subjected to macro and microscopic examination, these being sectioned along the greater curvature (stomach) and along the major axis (intestine), washed with tepid physiological solution extended and carefully observed with a magnifying lens, in order to note hyperemia zones with ulcerations or with other trophic alterations of the mucosa.

[4] = as above; assay type: in vivo; details: rat, in vivo, 4 weeks
Procedure: as §1, §2, §3, §4, §5, §6, §7, §8, §9, §10, §11, §12, §13, §14, §15, §16, §17, §18

[5] = tested on: female Wistar rats; experiment: Effect on spontaneous diuresis (TABLE 3); assay type: in vivo, Wistar rat; details: 5 mg/kg oral; for Excreted sodium/potassium ratio: 12 h; for Potassium excretion / Sodium excretion: spontaneous diuresis
Procedure: These investigations were carried out on Wistar rats of both sexes, having a body weight which is specified in each case in the relative tables, which compare the results with Indapamide. Both the CM/1 and the Indapamide were administered orally after being suitably dissolved in the following solvent:
(§19) The controls were treated with an equal volume of solvent. The experiments were carried out on animals which had regularly fasted for at least 12 hours, but had free access to water.
(§20) The sodium and potassium in the urine were determined by a photometric method.
Finally, the effect on the new product of spontaneous diuresis was determined.
These investigations were carried out on 15 female Wistar rats having a body weight varying from 230 to 260 g, and divided at random into three groups of 5. The animals were kept in individual metabolic cages overnight for a period of 12 hours in order to collect the urine spontaneously excreted. One group was treated as usual with 1 ml/kg of solvent by means of a gastric probe, and the other two were treated respectively with 5 mg/kg of Indapamide and 5 mg/kg of CM/1. The sodium and potassium were analysed as usual in the urine collected.

[6] = tested on: female Wistar rats; experiment: Diuretic and saluretic activity: excretion of an aqueous saline load (TABLE 1); assay type: in vivo, Wistar rat; details: 5 mg/kg oral
Procedure: Both the CM/1 and the Indapamide were administered orally after being suitably dissolved in the following solvent:
as §19, §20
The effect on the excretion of an aqueous saline load was first checked. 18 female Wistar rats were used divided into three groups, one of 8 and two of 5, and these were treated in the following manner:
GROUP A: CONTROLS 1 ml of solvent made up to 50 ml with 0.9% sodium chloride solution, administered by gastric probe, per kg of body weight (=50 ml/kg in terms of volume);
GROUP B: INDAPAMIDE 5 mg/kg in 1 ml/kg of solvent made up to 50 ml/kg with sodium chloride solution, administered by gastric probe;
GROUP C: CM/1,5 mg/kg using the same method as for the Indapamide.
The rats were placed immediately in individual metabolic cages for collecting the urine during the three hours subsequent to the load. The quantity of urine excreted is given as a percentage of the quantity administered. The sodium and potassium are expressed in mEq/3h.
Values of P less than 0.05 have been considered significant.

[7] = saline load, mean ± standard error, n = 5

**Q.** Which results are given for `CC1c2ccccc2CN1NC(=O)c1ccc(Cl)c(S(N)(=O)=O)c1` (stereo not shown) [CM/1, 1-methyl-2-(3'-sulphamyl-4'-chlorobenzamido)-isoindoline]?
**A.** damaging side-effects [1]: no damagingside-effects; DL50 ([2]; Swiss mouse, both sexes, 10 days observation): > 2,500 mg/kg; deaths / toxic symptomatology ([2]; mouse, individual doses up to 2,500 mg/kg): No deaths were observed either in the rat or in the mouse, nor was any particular toxic symptomatology found; alteration in the organs examined or in the gastro-enteric mucosa [3]: No alteration was noted; behaviour and food consumption [3]: Behaviour was normal, as was food consumption; deaths during the 28 days of treatment [3]: no deaths were recorded; sodaemia and potassaemia [3]: slight reduction in the potassaemia and sodaemia; symptomatology [3]: No particular symptomatology was noted; urine composition ([3]; collected days 25-27, versus controls): in practice similar for the controls and treated animals; hematic biochemical constants ([3]; except sodaemia and potassaemia): all within the range of normal values for the rat of this stock; body weight ([3]; versus controls): in practice similar to the data for the controls; hemograms ([3]; versus controls): all normal, without any significant differences between the controls and treated animals; water consumption ([3]; versus controls): slightly greater than the controls; selectivity ratio at 672 h ([4]; daily doses up to 40 mg/kg oral, read-out: tolerated doses relative to the maximum daily human therapeutic dose): 560; NOAEL at 672 h ([4]; oral, read-out: well tolerated daily dose (subacute toxicity)): ≥ 40 mg/kg/day; diuretic action [5]: marked diuretic action, which is stronger in the case of the product CM/1; ratio of sodium to potassium excretion, CM/1 compared with Indapamide [5]: higher in the group treated with the product CM/1, and the difference reaches statistical significance; sodium and potassium excretion [5]: increased; Excreted sodium/potassium ratio ([5]; individual rats): 1.651 and 2.262 and 2.277 and 2.188 and 1.746; Excreted sodium/potassium ratio ([5]; mean ± standard error, n = 5): 2.024 ± 0.134; ml of urine collected in 12 hours ([5]; individual rats): 10.5 mL and 17.5 mL and 21.0 mL and 16.6 mL and 15.0 mL; ml of urine collected in 12 hours ([5]; mean ± standard error, n = 5): 16.12 ± 1.71 mL; Potassium excretion ([5]; individual rats): 3.708 mEq/12h and 3.042 mEq/12h and 3.911 mEq/12h and 3.508 mEq/12h and 3.430 mEq/12h; Sodium excretion ([5]; individual rats): 6.123 mEq/12h and 6.880 mEq/12h and 8.906 mEq/12h and 7.675 mEq/12h and 5.989 mEq/12h; Potassium excretion ([5]; mean ± standard error, n = 5): 3.5198 ± 0.145 mEq/12h; Sodium excretion ([5]; mean ± standard error, n = 5): 7.114 ± 0.539 mEq/12h; diuretic and saluretic effect, CM/1 compared with Indapamide [6]: considerably greater; Urine excretion of load in percent of quantity administered (cumulative excretion), 1 hour ([6]; individual rats): 16.7% and 14.8% and 11.5% and 9.1% and 12.9%; Urine excretion of load in percent of quantity administered (cumulative excretion), 2 hours ([6]; individual rats): 68.3% and 32.2% and 48.5% and 64.5% and 48.7%; Urine excretion of load in percent of quantity administered (cumulative excretion), 3 hours ([6]; individual rats): 108.8% and 94.5% and 109.2% and 94.8% and 90.4%; Urine excretion of load in percent of quantity administered (cumulative excretion), 1 hour ([6]; mean ± standard error, n = 5): 13.0 ± 1.31%; Urine excretion of load in percent of quantity administered (cumulative excretion), 2 hours ([6]; mean ± standard error, n = 5): 52.44 ± 6.46%; Urine excretion of load in percent of quantity administered (cumulative excretion), 3 hours ([6]; mean ± standard error, n = 5): 99.54 ± 3.93% and 99.5%; diuretic and saluretic effect ([6]; relative to the controls): significant diuretic and saluretic effect relative to the controls; ratio of the sodium to the potassium excreted during the 3 hours ([6]; saline load): 5.91; Potassium excretion ([6]; saline load, individual rats): 0.297 mEq/3h and 0.310 mEq/3h and 0.276 mEq/3h and 0.280 mEq/3h and 0.284 mEq/3h; Sodium excretion ([6]; saline load, individual rats): 1.81 mEg/3h and 1.77 mEg/3h and 1.56 mEg/3h and 1.68 mEg/3h and 1.73 mEg/3h; Potassium excretion [6, 7]: 0.289 ± 0.062 mEq/3h; Sodium excretion [6, 7]: 1.71 ± 0.043 mEg/3h; excreted sodium and potassium ([6]; versus controls): significantly higher than the controls
